Patent publication US7138361B2, “Herbicidal heterocycles” (E. I. du Pont de Nemours and Company, priority 2000, dated 2006)

What was measured:
Format in all cases: in vivo
[1] = system: blackgrass (Alopecurus myosuroides); test: Test B postemergence
How it was run: (§1)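 Ratings on a 0 to 100 visual scale (100 complete control) compare treated plants with controls 13 to 15 days after application. Treatments were pre- or postemergence sprays of compound in non-phytotoxic solvent with surfactant.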

corn (Zea mays) [2] = test: Test B postemergence
How it was run: as §1

[3] = system: velvetleaf (Abutilon theophrasti); test: Test B postemergence; conditions: Rate 125 g/ha, scale 0 to 100, 0 no effect, 100 complete control
How it was run: as §1

[4] = system: wheat (Triticum aestivum); test: Test B postemergence; conditions: Rate 125 g/ha, scale 0 to 100, 0 no effect, 100 complete control
How it was run: as §1

wild oat (Avena fatua) = test: Test B postemergence; conditions: Rate 125 g/ha, scale 0 to 100, 0 no effect, 100 complete control
How it was run: as §1

Sunflower = test: Test C preemergence; conditions: Rate 125 g/ha; scale 0 to 100, 0 no effect, 100 complete control
[5] = system: Surinam grass (Brachiaria decumbens); test: Test C preemergence; conditions: for Plant response rating (0 to 100), Surinam grass: Rate 500 g/ha, visual evaluation after 12 to 14 days
How it was run: (§2)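 Compounds in non-phytotoxic solvent with surfactant applied preemergence to planted seeds and postemergence to plants at 1- to 4-leaf stage (2–18 cm). Kept in greenhouse 12–14 days, then visually rated against controls on a 0 (no effect) to 100 (complete control) scale.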

[6] = system: bermudagrass (Cynodon dactylon); test: Test C preemergence; conditions: for Plant response rating (0 to 100 where 0 is no effect and 100 is complete control), Bermudagrass: Rate 500 g/ha, visual evaluation after 12 to 14 days
How it was run: as §2

corn (Zea mays) [7] = test: Test C preemergence; conditions: for Plant response rating (0 to 100), Corn: Rate 500 g/ha, visual evaluation after 12 to 14 days
How it was run: as §2

[8] = system: crabgrass (Digitaria sanguinalis); test: Test C preemergence; conditions: for Plant response rating (0 to 100), Crabgrass: Rate 500 g/ha, visual evaluation after 12 to 14 days
How it was run: as §2

[9] = system: giant foxtail (Setaria faberii); test: Test C preemergence; conditions: for Plant response rating (0 to 100), Foxtail, Giant: Rate 500 g/ha, visual evaluation after 12 to 14 days
How it was run: as §2

[10] = system: goosegrass (Eleusine indica); test: Test C preemergence; conditions: for Plant response rating (0 to 100), Goosegrass: Rate 500 g/ha, visual evaluation after 12 to 14 days
How it was run: as §2

[11] = system: johnsongrass (Sorghum halepense); test: Test C preemergence; conditions: for Plant response rating (0 to 100), Johnsongrass: Rate 500 g/ha, visual evaluation after 12 to 14 days
How it was run: as §2

[12] = system: lambsquarters (Chenopodium album); test: Test C preemergence; conditions: for Plant response rating (0 to 100), Lambsquarters: Rate 500 g/ha, visual evaluation after 12 to 14 days
How it was run: as §2

[13] = system: morningglory (Ipomoea hederacea); test: Test C preemergence; conditions: for Plant response rating (0 to 100), Morningglory: Rate 500 g/ha, visual evaluation after 12 to 14 days
How it was run: as §2

[14] = system: pigweed (Amaranthus retroflexus); test: Test C preemergence; conditions: for Plant response rating (0 to 100), Pigweed: Rate 500 g/ha, visual evaluation after 12 to 14 days
How it was run: as §2

soybean (Glycine max) = test: Test C preemergence; conditions: for Plant response rating (0 to 100), Soybean: Rate 500 g/ha, visual evaluation after 12 to 14 days
How it was run: as §2

[15] = system: velvetleaf (Abutilon theophrasti); test: Test C preemergence; conditions: for Plant response rating (0 to 100), Velvetleaf: Rate 500 g/ha, visual evaluation after 12 to 14 days
How it was run: as §2

[16] = system: woolly cupgrass (Eriochloa villosa); test: Test C preemergence; conditions: for Plant response rating (0 to 100), Cupgrass, Woolly: Rate 500 g/ha, visual evaluation after 12 to 14 days
How it was run: as §2

[17] = system: yellow nutsedge (Cyperus esculentus); test: Test C preemergence; conditions: for Plant response rating (0 to 100), Nutsedge: Rate 500 g/ha, visual evaluation after 12 to 14 days
How it was run: as §2

[18] = Rate 125 g/ha, scale 0 to 100, 0 no effect, 100 complete control
[19] = Rate 500 g/ha, scale 0 to 100, 0 is no effect, 100 is complete control, 13 to 15 days
[20] = preemergence, Rate 62 g/ha, scale 0 to 100
[21] = preemergence, Rate 250 g/ha, scale 0 to 100, 0 no effect, 100 complete control

CCCC(C)c1ccn(C2OCN(c3cccc(OC(F)F)c3)C2=O)n1 (stereo not drawn) [Compound 132]
70: Plant response rating, Corn (corn (Zea mays) [7]; [21]) | Plant response rating, Foxtail, Giant [9, 18] | Plant response rating, Foxtail, Giant [9, 20] | Plant response rating, Pigweed [14, 21]
30: Plant response rating, Pigweed [14, 18] | Plant response rating (0 to 100), Soybean (soybean (Glycine max); preemergence)
80: Plant response rating, Johnsongrass [11, 18]
20: Plant response rating, Sunflower (Sunflower) | Plant response rating, Soybean (soybean (Glycine max); [18]) | Plant response rating, Soybean (soybean (Glycine max); [20]) | Plant response rating, Soybean (soybean (Glycine max); [21])
10: Plant response rating, Corn (corn (Zea mays) [7]; [18])
100: Plant response rating, Surinam grass [5, 18] | Plant response rating (0 to 100), Surinam grass ([5]; preemergence) | Plant response rating, Surinam grass [5, 21] | Plant response rating, Bermudagrass [6, 18] | Plant response rating, Bermudagrass [6, 20] | Plant response rating (0 to 100 where 0 is no effect and 100 is complete control), Bermudagrass ([6]; preemergence) | Plant response rating, Bermudagrass [6, 21] | Plant response rating, Crabgrass [8, 18] | Plant response rating, Crabgrass [8, 20] | Plant response rating (0 to 100), Crabgrass ([8]; preemergence) | Plant response rating, Crabgrass [8, 21] | Plant response rating (0 to 100), Foxtail, Giant ([9]; preemergence) | Plant response rating, Foxtail, Giant [9, 21] | Plant response rating, Goosegrass [10, 18] | Plant response rating, Goosegrass [10, 20] | Plant response rating (0 to 100), Goosegrass ([10]; preemergence) | Plant response rating, Goosegrass [10, 21] | Plant response rating (0 to 100), Johnsongrass ([11]; preemergence) | Plant response rating, Johnsongrass [11, 21] | Plant response rating, Lambsquarters [12, 18] | Plant response rating, Lambsquarters [12, 20] | Plant response rating (0 to 100), Lambsquarters ([12]; preemergence) | Plant response rating, Lambsquarters [12, 21] | Plant response rating (0 to 100), Pigweed ([14]; preemergence) | Plant response rating, Cupgrass, Woolly [16, 18] | Plant response rating (0 to 100), Cupgrass, Woolly ([16]; preemergence) | Plant response rating, Cupgrass, Woolly [16, 21]
50: Plant response rating, Johnsongrass [11, 20]
0: Plant response rating, Blackgrass [1, 18] | Plant response rating, Blackgrass [1, 19] | Plant response rating, Corn (corn (Zea mays) [2]; [18]) | Plant response rating, Corn (corn (Zea mays) [2]; [19]) | Plant response rating, Velvetleaf [3] | Plant response rating, Wheat [4] | Plant response rating, Wild Oat (wild oat (Avena fatua)) | Plant response rating, Corn (corn (Zea mays) [7]; [20]) | Plant response rating, Morningglory [13, 20] | Plant response rating (0 to 100), Morningglory ([13]; preemergence) | Plant response rating, Morningglory [13, 21] | Plant response rating, Pigweed [14, 20] | Plant response rating, Velvetleaf [15, 20] | Plant response rating (0 to 100), Velvetleaf ([15]; preemergence) | Plant response rating, Velvetleaf [15, 21] | Plant response rating, Nutsedge [17, 18] | Plant response rating, Nutsedge [17, 20] | Plant response rating, Nutsedge [17, 21]
90: Plant response rating, Surinam grass [5, 20] | Plant response rating (0 to 100), Corn (corn (Zea mays) [7]; preemergence) | Plant response rating, Cupgrass, Woolly [16, 20] | Plant response rating (0 to 100), Nutsedge ([17]; preemergence)

CCC(CC)c1ccn(C2CCN(c3ccc(Cl)c(OC)c3)C2=O)n1 (stereo not drawn) [Compound 118]
30: Plant response rating, Wild Oat (wild oat (Avena fatua)) | Plant response rating, Surinam grass [5, 21]
60: Plant response rating, Soybean (soybean (Glycine max); [18])
75: Plant response rating, Pigweed [14, 20]
65: Plant response rating, Soybean (soybean (Glycine max); [21])
100: Plant response rating, Bermudagrass [6, 18] | Plant response rating, Bermudagrass [6, 20] | Plant response rating (0 to 100 where 0 is no effect and 100 is complete control), Bermudagrass ([6]; preemergence) | Plant response rating, Bermudagrass [6, 21] | Plant response rating, Crabgrass [8, 18] | Plant response rating, Crabgrass [8, 20] | Plant response rating (0 to 100), Crabgrass ([8]; preemergence) | Plant response rating, Crabgrass [8, 21] | Plant response rating, Foxtail, Giant [9, 18] | Plant response rating (0 to 100), Foxtail, Giant ([9]; preemergence) | Plant response rating, Foxtail, Giant [9, 21] | Plant response rating, Goosegrass [10, 18] | Plant response rating, Goosegrass [10, 20] | Plant response rating (0 to 100), Goosegrass ([10]; preemergence) | Plant response rating, Goosegrass [10, 21] | Plant response rating (0 to 100), Johnsongrass ([11]; preemergence) | Plant response rating, Lambsquarters [12, 18] | Plant response rating, Lambsquarters [12, 20] | Plant response rating (0 to 100), Lambsquarters ([12]; preemergence) | Plant response rating, Lambsquarters [12, 21] | Plant response rating (0 to 100), Morningglory ([13]; preemergence) | Plant response rating, Pigweed [14, 18] | Plant response rating (0 to 100), Pigweed ([14]; preemergence) | Plant response rating, Pigweed [14, 21] | Plant response rating, Velvetleaf [15, 18] | Plant response rating (0 to 100), Velvetleaf ([15]; preemergence) | Plant response rating, Velvetleaf [15, 21] | Plant response rating (0 to 100), Cupgrass, Woolly ([16]; preemergence) | Plant response rating, Cupgrass, Woolly [16, 21]
40: Plant response rating, Velvetleaf [3] | Plant response rating, Johnsongrass [11, 18] | Plant response rating, Soybean (soybean (Glycine max); [20]) | Plant response rating, Cupgrass, Woolly [16, 20]
35: Plant response rating (0 to 100), Corn (corn (Zea mays) [7]; preemergence)
0: Plant response rating, Blackgrass [1, 18] | Plant response rating, Blackgrass [1, 19] | Plant response rating, Surinam grass [5, 20] | Plant response rating, Corn (corn (Zea mays) [7]; [18]) | Plant response rating, Corn (corn (Zea mays) [7]; [20]) | Plant response rating, Foxtail, Giant [9, 20] | Plant response rating, Johnsongrass [11, 20] | Plant response rating, Morningglory [13, 20] | Plant response rating, Nutsedge [17, 18] | Plant response rating, Nutsedge [17, 20] | Plant response rating (0 to 100), Nutsedge ([17]; preemergence) | Plant response rating, Nutsedge [17, 21]
70: Plant response rating, Johnsongrass [11, 21]
20: Plant response rating, Corn (corn (Zea mays) [2]; [18]) | Plant response rating, Corn (corn (Zea mays) [2]; [19]) | Plant response rating, Wheat [4] | Plant response rating, Morningglory [13, 18] | Plant response rating, Velvetleaf [15, 20]
10: Plant response rating, Surinam grass [5, 18] | Plant response rating, Corn (corn (Zea mays) [7]; [21])
90: Plant response rating, Morningglory [13, 21] | Plant response rating (0 to 100), Soybean (soybean (Glycine max); preemergence) | Plant response rating, Cupgrass, Woolly [16, 18]
50: Plant response rating, Sunflower (Sunflower) | Plant response rating (0 to 100), Surinam grass ([5]; preemergence)
